According to patent publication US11723365B2, “Method for controlling PPO resistant weeds” (BASF SE, priority 2016, dated 2023):

How the values were obtained:
Format in all cases: in vivo
[1] = tested on: Amaranthus tamariscinus (common waterhemp, AMATA), sensitive biotype (w.1); assay: greenhouse experiment, weed control, sensitive common waterhemp (w.1)
From the text: (§1) The culture containers used were plastic flowerpots containing loamy sand with approximately 3.0% of humus as the substrate. The seeds of the test plants were sown separately for each species and/or resistant biotype. For the pre-emergence treatment, the active ingredients, which had been suspended or emulsified in water, were applied directly after sowing by means of finely distributing nozzles. The containers were irrigated gently to promote germination and growth and subsequently covered with transparent plastic hoods until the plants had rooted. This cover caused uniform germination of the test plants, unless this had been impaired by the active ingredients. For the post-emergence treatment, the test plants were first grown to a height of 3 to 15 cm, depending on the plant habit, and only then treated with the active ingredients which had been suspended or emulsified in water. For this purpose, the test plants were either sown directly and grown in the same containers, or they were first grown separately as seedlings and transplanted into the test containers a few days prior to treatment. Depending on the species, the plants were kept at 10-25° C. or 20-35° C., respectively. The test period extended over 2 to 4 weeks. During this time, the plants were tended, and their response to the individual treatments was evaluated. The evaluation was carried out by using a scale from 0 to 100. 100 means no emergence of the plants or complete destruction of at least the above-ground parts, and 0 means no damage, or normal course of growth.
(§2) The plants used in a first greenhouse experiment were of the following species and biotype: […]

[2] = tested on: Amaranthus tamariscinus (common waterhemp, AMATA), PPO resistant biotype 1 (w.2); assay: greenhouse experiment, weed control, PPO resistant biotype 1 (w.2); conditions: for activity on sensitive and resistant weeds (in words): summary of table 2: sensitive (w.1) and resistant weeds (w.2, w.3); for Weed control (%) w.2: scale 0 to 100
From the text: as §1, §2

[3] = tested on: Amaranthus tamariscinus (common waterhemp, AMATA), PPO resistant biotype 2 (w.3); assay: greenhouse experiment, weed control, PPO resistant biotype 2 (w.3); conditions: scale 0 to 100
From the text: as §1, §2

[4] = tested on: Amaranthus tamariscinus (common waterhemp, AMATA), sensitive biotype (w.4); assay: another greenhouse experiment, weed control, sensitive common waterhemp (w.4); conditions: use rate 4 g/ha; scale 0 to 100
From the text: as §1, with “100 means no emergence of the plants or complete destruction of at least the above-ground parts, and 0 means no damage, or normal course of growth.” left out

[5] = tested on: Amaranthus tamariscinus (common waterhemp, AMATA), PPO resistant biotype 3 containing the ΔG210 mutation (w.5); assay: another greenhouse experiment, weed control, PPO resistant biotype 3 (w.5)
From the text: as §1, with “100 means no emergence of the plants or complete destruction of at least the above-ground parts, and 0 means no damage, or normal course of growth.” left out

[6] = tested on: Amaranthus tamariscinus (common waterhemp, AMATA), PPO resistant biotype 4 containing the ΔG210 mutation (w.6); assay: another greenhouse experiment, weed control, PPO resistant biotype 4 (w.6); conditions: use rate 4 g/ha; scale 0 to 100
From the text: as §1, with “100 means no emergence of the plants or complete destruction of at least the above-ground parts, and 0 means no damage, or normal course of growth.” left out

[7] = use rate 2 g/ha, scale 0 to 100
[8] = use rate 4 g/ha, scale 0 to 100 (100 = complete destruction, 0 = no damage)

Compound | Weed control (%) w.1 [1, 7] | Weed control (%) w.1 [1, 8] | activity on sensitive and resistant weeds (in words) [2] | Weed control (%) w.2 ([2]; use rate 2 g/ha) | Weed control (%) w.2 ([2]; use rate 4 g/ha) | Weed control (%) w.3 ([3]; use rate 2 g/ha) | Weed control (%) w.3 ([3]; use rate 4 g/ha) | Weed control (%) w.4 [4] | activity on sensitive and resistant weeds (in words) ([5]; summary of table 3: sensitive (w.4) and resistant weeds (w.5, w.6) containing the ΔG210 mutation) | Weed control (%) w.5 ([5]; use rate 4 g/ha, scale 0 to 100) | Weed control (%) w.6 [6]
COC(=O)CCNC(=O)C(C)Sc1cc(-n2c(=O)cc(C(F)(F)F)n(C)c2=O)c(F)cc1Cl (stereo not drawn) [(I).1, tiafenacil] | 90% | 99% | very good activity on both sensitive (w.1) and resistant weeds (w.2, w.3) | 83% | 91% | 78% | 85% | 92% | very good activity on both sensitive (w.4) and resistant weeds (w.5, w.6) | 95% | 88%
C#CCOc1cc(-n2nc3n(c2=O)CCCC3)c(Cl)cc1Cl [azafenidin, reference compound] | 95% | 98% | much weaker control of resistant in comparison to sensitive biotypes | 67% | 73% | 70% | 72% |  |  |  | 
